Test results reported in patent US10239887B2, “Positive allosteric modulators of the muscarinic acetylcholine receptor M4” (Vanderbilt University, priority 2016, dated 2019).
Counter-ions that a name gives are not always drawn. Like-named read-outs stand apart in the source and are kept apart here.

Target: T1, human mAChR M4 (Homo sapiens, UniProt P08173)
T1 sequence (P08173 1-479): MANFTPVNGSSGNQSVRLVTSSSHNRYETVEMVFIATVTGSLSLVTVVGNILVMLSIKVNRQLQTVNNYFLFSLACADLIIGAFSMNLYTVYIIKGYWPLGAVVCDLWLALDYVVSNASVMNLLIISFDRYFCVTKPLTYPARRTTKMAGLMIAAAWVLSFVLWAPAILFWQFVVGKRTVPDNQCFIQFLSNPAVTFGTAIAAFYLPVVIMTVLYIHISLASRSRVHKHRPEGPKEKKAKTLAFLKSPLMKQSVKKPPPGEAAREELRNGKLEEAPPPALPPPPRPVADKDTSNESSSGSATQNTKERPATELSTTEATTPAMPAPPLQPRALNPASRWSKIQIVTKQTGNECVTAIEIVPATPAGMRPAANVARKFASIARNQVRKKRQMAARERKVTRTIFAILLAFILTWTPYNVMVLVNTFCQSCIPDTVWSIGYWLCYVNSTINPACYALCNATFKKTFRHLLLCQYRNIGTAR
Test: mAChR M4 cell-based functional assay (calcium flux), human M4

[1] = Human M4 EC50 (nM), Table 10, calcium flux, PAM activity with EC20 acetylcholine
[2] = Table 10, % ACh maximum at 30 μM
[3] = Human M4 EC50 (nM), Table 11, calcium flux, PAM activity with EC20 acetylcholine
[4] = Table 11, % ACh maximum at 30 μM
[5] = Human M4, % ACh maximum at 30 μM
[6] = Human M4 EC50, CHO-K1 hM4-Gqi5 cells, calcium flux, increase in EC20 acetylcholine response
[7] = Human M4 EC50 (nM), Table 10, unit μM (bounds)

| SMILES | EC50 [1] | Emax [2] | other results |
| --- | --- | --- | --- |
| Cc1c(Cl)nnc2sc3c(NC4CCC4)ncnc3c12 [Compound 210, 3-chloro-N-cyclobutyl-4-methyl-pyrimido [4′,5′:4,5]thieno[2,3-c] pyridazin-8-amine] | 44.6 nM | 65.1% | – |
| Cc1cc(O[C@H]2CCN(c3ncnc4c3sc3nnc(C)c(C)c34)C2)ccn1 [Compound 330, 3,4-dimethyl-8-[(3S)-3-[(2-methyl-4-pyridyl)oxy]pyrrolidin-1-yl]pyrimido [4′,5′:4,5]thieno[2,3-c] pyridazine] | – | – | EC50 [3]: 111 nM; Emax [4]: 74.4% |
| Cc1nnc2sc3c(N4CC(Oc5ccccc5F)C4)ncnc3c2c1C [Compound 31, 8-(3-(2-fluorophenoxy)azetidin-1-yl)-3,4-dimethylpyrimido [4′,5′:4,5]thieno[2,3-c] pyridazine] | – | – | Emax [5]: 60%; EC50 [6]: 2160 nM |
| Cc1nnc2sc3c(N4CCC(C(=O)Nc5ccc(C(F)(F)F)cc5)C4)ncnc3c2c1C (stereo not drawn) [Compound 173, 1-(3,4-dimethylpyrimido [4′,5′:4,5]thieno[2,3-c]pyridazin-8-yl)-N-[4-(trifluoromethyl)phenyl] pyrrolidine-3-carboxamide] | 3310 nM | 24.4% | – |
| COc1ccc(C2CC2Nc2ncnc3c2sc2ncc(Cl)c(C)c23)cc1 (stereo not drawn) [Compound 236, 8-chloro-N-[2-(4-methoxyphenyl)cyclopropyl]-9-methyl-pyrido [3′,2′:4,5]thieno[3,2-d] pyrimidin-4-amine dihydrochloride] | 5660 nM | 61.2% | – |
| Cc1nnc2sc3c(NC4CC5(C4)CN(C(=O)C4CCOCC4)C5)ncnc3c2c1C [Compound 169, [6-[(3,4-dimethylpyrimido[4′,5′:4,5]thieno[2,3-c]pyridazin-8-yl)amino]-2-azaspiro[3.3]heptan-2-yl]-tetrahydropyran-4-yl-methanone] | – | 34.9% | EC50 [7]: > 10000 nM |
| Cc1nnc2sc3c(N4CC5(CNC5)C4)ncnc3c2c1C [Compound 105, 8-(2,6-diazaspiro[3.3]heptan-2-yl)-3,4-dimethyl-pyrimido [4′,5′:4,5]thieno[2,3-c] pyridazine] | 627 nM | – | Emax: 55.6% |
| Cc1nc2oc3c(NC4CN(c5ncc(C(F)(F)F)cn5)C4)ncnc3c2c(C)c1Cl [Compound 241, 8-chloro-7,9-dimethyl-N-[1-[5-(trifluoromethyl)pyrimidin-2-yl]yl]azetidin-3-yl]pyrido [3′,2′:4,5]furo[3,2-d] pyrimidin-4-amine hydrochloride] | 1010 nM | 39.7% | – |
| Cc1nnc2sc3c(NC4CC5(C4)CN(C(=O)CC(F)(F)F)C5)ncnc3c2c1C [Compound 168, 1-[6-[(3,4-dimethylpyrimido [4′,5′:4,5]thieno[2,3-c]pyridazin-8-yl)amino]-2-azaspiro[3.3]heptan-2-yl]-3,3,3-trifluoro-propan-1-one] | 3970 nM | 29% | – |
| Cc1nnc2sc3c(NC(C)c4ccc(C(C)(C)O)cc4)ncnc3c2c1C (stereo not drawn) [Compound 100, 2-[4-[1-[(3,4-dimethylpyrimido [4′,5′:4,5]thieno[2,3-c]pyridazin-8-yl)amino]ethyl]phenyl]propan-2-ol] | 7720 nM | 52.2% | – |
| Cc1cc(C)c2c(n1)sc1c(N3CCC3)ncnc12 [Compound 197, 4-(azetidin-1-yl)-7,9-dimethyl-pyrido [3′,2′:4,5]thieno[3,2-d] pyrimidine] | 172 nM | 58.7% | – |
| Cc1cc(C)c2c(n1)oc1c(NC3CN(c4ncc(F)cn4)C3)ncnc12 [Compound 289, N-[1-(5-fluoropyrimidin-2-yl)azetidin-3-yl]-7,9-dimethyl-pyrido[3′,2′:4,5]furo[3,2-d]pyrimidin-4-amine hydrochloride] | – | 34.9% | – |
| Cc1c(Cl)cnc2sc3c(NC4CCC4)ncnc3c12 [Compound 228, 8-chloro-N-cyclobutyl-9-methyl-pyrido [3′,2′:4,5]thieno[3,2-d] pyrimidin-4-amine] | 3230 nM | 70% | – |
| COC(=O)C12CC(CNc3ncnc4c3sc3nnc(C)c(C)c34)(C1)C2 [Compound 140, methyl 1-[[(3,4-dimethylpyrimido [4′,5′:4,5]thieno[2,3-c]pyridazin-8-yl)amino]methyl]bicyclo[1.1.1] pentane-3-carboxylate] | 1240 nM | 80.3% | – |
| COCC1CN(c2ncnc3c2sc2ncc(Cl)c(C)c23)C1 [Compound 218, 8-chloro-4-[3-(methoxymethyl)azetidin-1-yl]-9-methyl-pyrido [3′,2′:4,5]thieno[2,3-d] pyrimidine] | 1020 nM | 51.3% | – |
| Cc1nnc2oc3c(NCc4cccc(C(C)(C)O)c4)ncnc3c2c1C [Compound 67, 2-[3-[[(3,4-dimethylpyrimido [4′,5′:4,5]furo[2,3-c]pyridazin-8-yl)amino]methyl]phenyl]propan-2-ol] | – | – | Emax [5]: 63.4% |

| SMILES | EC50 [1] | Emax [2] | other results |
| --- | --- | --- | --- |
| Cc1nnc2sc3c(N4Cc5ccc(C(C)(C)O)cc5C4)ncnc3c2c1C [Compound 142, 2-[2-(3,4-dimethylpyrimido [4′,5′:4,5]thieno[2,3-c]pyridazin-8-yl)isoindolin-5-yl]propan-2-ol; 2,2,2-trifluoroacetic acid] | 1250 nM | 53.6% | – |
| Cc1cc(C)c2c(n1)sc1c(N3CCCC3)ncnc12 [Compound 199, 7,9-dimethyl-4-pyrrolidin-1-yl-pyrido[3′,2′:4,5] thieno[3,2-d]pyrimidine] | 277 nM | 67.3% | – |
| Cc1nnc2sc3c(NCc4ccc(C(C)(C)CO)cc4)ncnc3c2c1C [Compound 375, 2-[4-[[(3,4-dimethylpyrimido[4′,5′:4,5]thieno[2,3-c]pyridazin-8-yl)amino]methyl]phenyl]-2-methyl-propan-1-ol] | – | – | EC50 [3]: 138 nM; Emax [4]: 87.2% |
| Cc1cc(C)c2c(n1)oc1c(NCc3cccc(C(C)(C)O)c3)ncnc12 [Compound 57, 2-[3-[[(7,9-dimethylpyrido[3′,2′:4,5]furod[3,2-]pyrimidin-4-yl)amino]methyl]phenyl] propan-2-ol] | – | – | Emax [5]: 23.7%; EC50 [6]: 4270 nM |
| Cc1nnc2sc3c(N4CC(C)(O)C4)ncnc3c2c1C [Compound 80, 1-(3,4-dimethylpyrimido [4′,5′:4,5]thieno[2,3-c]pyridazin-8-yl)-3-methyl-azetidin-3-ol] | – | 62.1% | – |
| COc1ccc(CNc2ncnc3c2sc2nnc(C)c(C)c23)cc1OC [Compound 94, N-[(3,4-dimethoxyphenyl)methyl]-3,4-dimethyl-pyrimido[4′,5′:4,5]thieno [2,3-c]pyridazin-8-amine] | 639 nM | 79.7% | – |
| Cc1nnc2sc3c(NCc4ccc(C(C)(C)O)c(F)c4)ncnc3c2c1C [Compound 112, 2-[4-[[(3,4-dimethylpyrimido [4′,5′:4,5]thieno[2,3-c]pyridazin-8-yl)amino]methyl]-2-fluoro-phenyl]propan-2-ol] | 255 nM | 74.6% | – |
| COc1ccc(CNc2ncnc3c2oc2nc(C)c(Cl)c(C)c23)cc1F [Compound 253, 8-chloro-N-[(3-fluoro-4-methoxy-phenyl)methyl]-7,9-dimethyl-pyrido [3′,2′:4,5]furo[3,2-d] pyrimidin-4-amine hydrochloride] | – | 41.9% | EC50 [7]: > 10000 nM |
| Cc1nnc2sc3c(NCc4ccc(C(C)(O)C5CC5)cc4)ncnc3c2c1C (stereo not drawn) [Compound 143, 1-cyclopropyl-1-[4-[[(3,4-dimethylpyrimido [4′,5′:4,5]thieno[2,3-c]pyridazin-8-yl)amino]methyl]phenyl]ethanol] | 779 nM | 61.3% | – |
| Cc1c(CO)nnc2sc3c(NCc4ccc(C(C)(C)O)cc4)ncnc3c12 [Compound 377, 2-[4-[[[3-(hydroxymethyl)-4-methyl-pyrimido[4′,5′:4,5]thieno[2,3-c]pyridazin-8-yl]amino]methyl]phenyl]propan-2-ol] | – | – | Emax [4]: 93.6% |
| Cc1nnc2sc3c(NCc4cccc(-c5ncccn5)c4)ncnc3c2c1C [Compound 327, 3,4-dimethyl-N-[(3-pyrimidin-2-ylphenyl)methyl]pyrimido [4′,5′:4,5]thieno[2,3-c] pyridazin-8-amine] | – | – | EC50 [3]: 1770 nM; Emax [4]: 64.6% |
| COc1c(F)cc(CNc2ncnc3c2sc2nnc(C)c(C)c23)cc1F [Compound 136, N-[(3,5-difluoro-4-methoxy-phenyl)methyl]-3,4-dimethyl-pyrimido [4′,5′:4,5]thieno[2,3-c] pyridazin-8-amine] | 388 nM | 96.8% | – |
| Cc1nnc2sc3c(NCc4ccc(C(C)(C)O)nc4)ncnc3c2c1C [Compound 106, 2-[5-[[(3,4-dimethylpyrimido [4′,5′:4,5]thieno[2,3-c]pyridazin-8-yl)amino]methyl]-2-pyridyl]propan-2-ol] | – | 54.1% | – |
| Cc1cc(C)c2c(n1)sc1c(NCc3cnc(C)nc3)ncnc12 [Compound 205, 7,9-dimethyl-N-[(2-methylpyrimidin-5-yl)methyl]pyrido[3′,2′:4,5] thieno[3,2-d] pyrimidin-4-amine] | 1400 nM | 54.2% | – |
| Cc1nnc2sc3c(NCc4ccc(C(=O)NC5CCC(C)(C)CC5)cc4)ncnc3c2c1C [Compound 160, N-(4,4-dimethylcyclohexyl)-4-[[(3,4-dimethylpyrimido [4′,5′:4,5]thieno[2,3-c]pyridazin-8-yl)amino]methyl]benzamide] | 980 nM | 86% | – |
